Source: patent US5166214A, “Use of imidazoles for the treatment of atherosclerosis” (priority 1990, dated 1992)
Like-named read-outs stand apart in the source and are kept apart here.

Key:
[1] = target: T1, Acyl-CoA: Cholesterol Acyltransferase (ACAT) (Rattus norvegicus, UniProt Q7TQM4); experiment: Inhibition of acyl-CoA: cholesterol acyltransferase (ACAT) in hepatic microsomes (in vitro); type: biochemical, rat (male Sprague Dawley); conditions: 75 μM 14C-oleoyl-CoA, pH 7.4, 37° C.
T1 construct: Microsomes were obtained by differential centrifugation; from tissue; host or cells: liver microsomes of male Sprague Dawley rats
T1 sequence (Q7TQM4 1-524): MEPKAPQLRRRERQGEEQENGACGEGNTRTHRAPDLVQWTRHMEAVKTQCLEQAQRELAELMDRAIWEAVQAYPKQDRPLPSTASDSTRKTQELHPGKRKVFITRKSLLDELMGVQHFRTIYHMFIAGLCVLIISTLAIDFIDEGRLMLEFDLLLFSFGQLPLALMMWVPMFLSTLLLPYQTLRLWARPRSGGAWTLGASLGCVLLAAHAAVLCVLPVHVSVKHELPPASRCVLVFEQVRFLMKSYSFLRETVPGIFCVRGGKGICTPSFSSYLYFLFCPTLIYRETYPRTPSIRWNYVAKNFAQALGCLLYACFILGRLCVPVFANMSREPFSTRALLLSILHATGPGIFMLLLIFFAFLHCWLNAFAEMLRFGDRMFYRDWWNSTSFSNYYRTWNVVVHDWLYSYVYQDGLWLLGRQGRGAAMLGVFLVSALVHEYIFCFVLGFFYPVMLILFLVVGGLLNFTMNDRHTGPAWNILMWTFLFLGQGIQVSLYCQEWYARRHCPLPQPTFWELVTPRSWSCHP
Experimental: A. Assay of the Inhibition of Acyl-CoA: Cholesterol Acyltransferase (ACAT) in Hepatic Microsomes
The ability of the compounds to inhibit ACAT, the enzyme responsible for the intracellular synthesis of cholesteryl esters, was tested as follows. Male Sprague Dawley rats weighing 150-300 g, were fed rat chow ad libitum. The animals were fasted for twenty-four hours prior to being sacrificed by decapitation. The livers were perfused in situ with 50 ml of cold 0.25M sucrose, excised, and homogenized in three volumes of 0.1M phosphate buffer, pH 7.4, that contained 0.5 mM EDTA (ethylenediaminetetraacetic acid), 1.0 mM glutathione, 0.25M sucrose and […]. Microsomes were obtained by differential centrifugation; the supernatant from an initial spin at 15,000×g for 15 minutes was centrifuged at 105,000×g for 1 hour to pellet the microsomes. The microsomes were suspended in homogenization buffer, reisolated by centrifugation, and stored at -70° C. Microsomes were used within one month of preparation.
The control assay in a final volume of 200 μl consisted of 200 μg of microsomal protein, 75 μM ^14 C-oleoyl-CoA (10,000 dpm/nmol) in 0.1M phosphate, pH 7.4, that contained 1 mM glutathione. Compounds were added in 5 μl of DMSO (dimethyl sulfoxide) and additional controls were run with DMSO only. All components, except the oleoyl-CoA, were preincubated for 15 min. at 37° C. prior to the initiation of the reaction by the addition of oleoyl-CoA. The assay was terminated after 10 min by the addition of 4 ml of chloroform:methanol (2:1, v/v). 20,000 dpm of ^3 H-cholesteryl oleate and 10 μg of unlabeled cholesteryl oleate and oleic acid were added as an internal standard and carriers, respectively. After allowing 10 min. for lipid extraction, the samples were centrifuged at 1,000×g for 10 min. to separate the solvent layers. The chloroform layer containing the neutral lipids was spotted onto a Baker SI250-Pa silica gel TLC plate and the plate developed using a hexane: diethyl ether: acetic acid (170:30:1 v/v/v) mobile phase. The lipids were visualized by their interaction with iodine vapor and the cholesteryl ester spot was scraped into a scintillation vial and counted.

[2] = tested on: murine macrophage-like cell line J774.A1; experiment: Inhibition of cholesterol esterification in mammalian cells (macrophage assay); type: cell-based; conditions: J774.A1 macrophages loaded with ac-LDL, 14C-oleic acid; read-out: Cholesterol Esterification IC50
Experimental: B. Assay of the Inhibition of Cholesterol Esterification in Mammalian Cells
The esterification of cholesterol was determined in the murine macrophage-like cell line J774.A1. Cells were seeded in 35 mm wells at a density of 300,000 cells per well in 2 mls of Dulbecco's Eagle Medium (DMEM) supplemented with 10% fetal bovine serum (FBS). Cells were incubated at 37° C. in an atmosphere of 5% CO2 and 93% humidity. After 24 hours the media was changed to 0.68 mls 10% FBS-DMEM containing 34 μg of acetylated human low density lipoprotein (ac-LDL) to increase the intracellular concentration of cholesterol and promote esterification. At 41 hours, various inhibitors were added to the cells in DMSO (10 μl/ml maximum). At 43 hours, the cells were pulsed with 0.1 mM ^14 C-oleic acid (10,000 dpm/nmol) complexed with BSA (bovine serum albumin) to follow cholesterol ester formation. The experiment was terminated at 45 hours by washing the monolayers 3 times with 3 ml of Tris-buffered saline at 4° C. The lipids were extracted by incubating the monolayers with 1.5 ml of hexane:isopropanol (3:2, v/v) for 30 min. under gentle agitation. During this period, 10,000 dpm 3H-cholesteryl linoleate and 10 μg of cholesteryl oleate were added as an internal standard and carrier respectively. The organic solvent was removed and the cells were washed with an additional 1.0 ml of hexane: isopropanol which was combined with the original extract. The cells were allowed to dry overnight, digested with 1.5 ml of 0.2N sodium hydroxide for 1 hour and an aliquot of the solubilized protein used for protein determination using the Lowry method. The organic extract was taken to dryness, the residue resuspended in 100 μl of chloroform and the lipids separated on silica gel impregnated glass fiber plates using a hexane:diethylether:acetic acid (170:30:1, v/v/v) solvent system. Individual lipids were visualized with iodine and the cholesteryl ester spot cut out and transferred to scintillation vials to determine the amount of radioactivity. The conversion of oleic acid to cholesteryl ester in the control averaged 0.54 […] and was increased upon the addition of ac-LDL to about 10.69±0.69 […]. […] It should be noted that many of the intermediates had inhibitory activity in the in vitro ACAT assay and in the macrophage assay.

[3] = rat hepatic microsomes, read-out: In Vitro ACAT IC50

| SMILES | IC50 [1, 3] | IC50 [2] | IC50 ([1]; In Vitro ACAT IC50, rat hepatic microsomes) |
| --- | --- | --- | --- |
| CCCCCCCN(CCCCCSc1nc(-c2ccccn2)c(-c2ccccn2)[nH]1)C(=O)Nc1ccc(F)cc1F [Example 107, N-[5-[4,5-bis(2-pyridinyl)-1H-imidazol-2-ylthio]pentyl]-N'-(2,4-difluorophenyl)-N-heptylurea] | 1 µM | 2.3 µM |  |
| CCCCCCCN(CCCCCSc1nc(-c2ccc(N(C)C)cc2)c(-c2ccc(N(C)C)cc2)[nH]1)C(=O)NC(C)C [Example 205, N-[5-[4,5-bis[4-(dimethylamino)phenyl]-1H-imidazol-2-ylthio]pentyl]-N-heptyl-N'-(1-methylethyl)urea] | 0.074 µM | 0.003 µM |  |
| CCCCCCCN(CCCCCSc1nc(-c2ccccc2)c(-c2ccccc2)[nH]1)C(=O)Nc1c(Cl)cccc1Cl [Example 64, N'-(2,6-dichlorophenyl)-N-[5-(4,5-diphenyl-1H-imidazol-2-ylthio)pentyl]-N-heptylurea] | 0.03 µM | 0.6 µM |  |
| CCCCCCCCNC(=O)N(CCCCCSc1nc(-c2ccccc2)c(-c2ccccc2)[nH]1)c1ccccc1 [Example 207, N-[5-(4,5-diphenyl-1H-imidazol-2-ylthio)pentyl]-N'-octyl-N-phenylurea] | 0.009 µM | 0.6 µM |  |
| CCCCCCCN(CCCCCSc1nc(C(C)C)c(C(C)C)[nH]1)C(=O)NC(C)C [Example 210] | 0.017 µM | 0.8 µM |  |
| CCCCCCCN(CCCCCSc1nc(-c2ccccc2OC)c(-c2ccccc2OC)[nH]1)C(=O)Nc1ccc(F)cc1F [Example 196, N-[5-[4,5-bis(2-methoxyphenyl)-1H-imidazol-2-ylthio]pentyl]-N'-(2,4-difluorophenyl)-N-heptylurea] | 0.3 µM | 1.4 µM |  |
| CCCCCCCCOC(=O)N(CCCCCCC)CCCCCSc1nc(-c2ccccc2)c(-c2ccccc2)[nH]1 [Example 405, Octyl [5-(4,5-diphenyl-1H-imidazol-2-ylthio)pentyl]heptylcarbamate] | 0.5 µM | 3.9 µM |  |
| CCCCCCCN(CCCCCSc1nc(-c2ccc(N(C)C)cc2)c(-c2ccc(N(C)C)cc2)[nH]1)C(=O)Nc1ccc(F)cc1F [Example 197, N-[5-[4,5-bis[4-(dimethylamino)phenyl]-1H-imidazol-2-ylthio]pentyl]-N'-(2,4-difluorophenyl)-N-heptylurea] | 0.119 µM | 0.1 µM |  |
| CCCCCCCN(CCCCCSc1nc(-c2ccccc2)c(-c2ccccc2)[nH]1)C(=O)NC [Example 7, N-[5-(4,5-diphenyl-1H-imidazol-2-ylthio)pentyl]-N-heptyl-N'-methylurea] | 0.041 µM | 7.5 µM |  |
| CCCCCCCN(CCCCCSc1nc(-c2ccc(OC)cc2)c(-c2ccc(OC)cc2)[nH]1)C(=O)CC1CCCCC1 [Example 355, N-[5-[4,5-bis(4-methoxyphenyl)-1H-imidazol-2-ylthio]pentyl]-N-heptylcyclohexaneacetamide] | 0.01 µM | 0.03 µM |  |
| CCCCCCCN(CCCC)CCCCCSc1nc(-c2ccccc2)c(-c2ccccc2)[nH]1 [Example 352] | 0.3 µM | 2.2 µM |  |
| CCCCCCCN(CCCCCSc1nc(-c2ccccc2)c(-c2ccccc2)[nH]1)C(=O)Oc1ccc(F)cc1 [Example 406, (4-fluorophenyl)[5-(4,5-diphenyl-1H-imidazol-2-ylthio)pentyl]heptylcarbamate] |  | 0.6 µM | 0.01 µM |
| CCCCCCCN(CCCCCSc1nc(C(C)C)c(C(C)C)[nH]1)C(=O)Nc1ccc(F)cc1F [Example 188, N-[5-[4,5-bis(1-methylethyl)-1H-imidazol-2-ylthio]pentyl]-N'-(2,4-difluorophenyl)-N-heptylurea] | 0.02 µM | 0.9 µM |  |
| CCCCCCCN(CCCCCSc1nc(-c2ccccc2)c(-c2ccccc2)[nH]1)C(=O)OCC(C)C [Example 403, (2-Methylpropyl) [5-(4,5-diphenyl-1H-imidazol-2-ylthio)pentyl]heptylcarbamate] | 0.035 µM | 0.5 µM |  |
| CCCCCCCN(CCCCCSc1nc(-c2ccco2)c(-c2ccco2)[nH]1)C(=O)Nc1ccc(F)cc1F [Example 201] | 0.2 µM | 0.5 µM |  |
